Measurements reported in patent US20050196466A1, “Process for inhibiting cell proliferation” (Pharmacyclics, Inc., priority 2004, published 2005).

Tests used:
[1] = system: A549 cells; assay: MTT reduction proliferation assay, microtiter plate, A549 cells; assay type: cell-based, human; details: zinc by itself at 100 μM
Text: (§1) Final mannitol concentration was 0.31% in all wells.

[2] = system: Ramos cells; assay: Cytotoxicity by propidium iodide uptake, flow cytometry; details: agent alone
Protocol: Gated cells with fluorescence at 585 nm from two cultures are shown for each time point. Error bars indicate standard deviation.
In other experiments (FIG. 11), Ramos cells grown in T-25 flasks were treated with a compound of Formula I (where M=Gd) (10 or 50 μM) and zinc (25 or 50 μM) for 1-2 days, Coulter counted, and analyzed by flow cytometry using propidium iodide.

[3] = system: A549 cells; assay: MTT assay, plateau phase A549 cells treated with 1-hydroxypyridine-2-thione, MGd and zinc; assay type: cell-based, human
Text: as §1

| Compound | effect on A549 cells ([1]; after one day) | effect on A549 cells ([1]; after three days) | cytotoxicity as assessed by flow cytometry after staining with propidium iodide [2] | effect on A549 cells ([3]; ZnHPT by itself at 0.625 μM, formed in situ from zinc acetate and 1-hydroxypyridine-2-thione, after one day (FIG. 12)) | cytotoxic dose of the zinc complex of 1-hydroxypyridine-2-thione ([3]; in the presence of a compound of formula 1) |
| --- | --- | --- | --- | --- | --- |
| CC(=O)[O-].CC(=O)[O-].[Zn+2] [zinc, zinc acetate] | no significant effect | no significant effect | did not increase cytotoxicity | – | – |
| c1cc[n+]2c(c1)[S][Zn]1([O]2)[O][n+]2ccccc2[S]1 [ZnHPT, Zinc complex of 1-hydroxypyridine-2-thione] | – | – | – | no significant effect | lowered |
